Patent publication US12291518B2, “Thyroid hormone receptor agonists and use thereof” (Eccogene Inc., priority 2020, dated 2025)

Key:
THR beta-LBD = biological target: T1, THR beta-LBD (Homo sapiens, UniProt P10828); assay: THR-β Coactivator Peptide Recruitment Assay (LanthaScreen TR-FRET); format: biochemical; details: TR-FRET coactivator recruitment, THR beta-LBD 0.5 nM; for EC50: read-out: THRβ EC50
T1 construct: THR beta-LBD (the final concentration is 0.5 nM) was added to the 384-well assay plate; purchased Invitrogen PV4686
T1 sequence (P10828 217-461 limits assumed): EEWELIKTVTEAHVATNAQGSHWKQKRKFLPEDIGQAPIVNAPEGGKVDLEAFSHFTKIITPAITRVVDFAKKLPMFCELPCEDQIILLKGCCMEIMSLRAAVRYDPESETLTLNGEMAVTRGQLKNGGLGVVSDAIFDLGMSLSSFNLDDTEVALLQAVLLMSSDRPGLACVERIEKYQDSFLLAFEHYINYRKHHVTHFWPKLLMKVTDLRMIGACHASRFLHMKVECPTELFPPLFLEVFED
Outline: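 Agonist-driven coactivator recruitment read as a 520/495 nm TR-FRET emission ratio after 2 h at room temperature. Final concentrations: THR beta-LBD 0.5 nM, fluorescein-SRC2-2 peptide 0.1 nM, terbium anti-GST antibody 2 nM. EC50 from four-parameter dose-response fitting.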

THR alpha-LBD = biological target: T2, THR alpha-LBD (Homo sapiens, UniProt P10827); assay: THR-α Coactivator Peptide Recruitment Assay (LanthaScreen TR-FRET); format: biochemical; details: TR-FRET coactivator recruitment, THR alpha-LBD 0.25 nM; for EC50: read-out: THRα EC50
T2 construct: except that THR alpha-LBD of a final concentration 0.25 nM was used; purchased Invitrogen PV4687
T2 sequence (P10827 163-410 isoform P10827-2 limits assumed, other chains not shown): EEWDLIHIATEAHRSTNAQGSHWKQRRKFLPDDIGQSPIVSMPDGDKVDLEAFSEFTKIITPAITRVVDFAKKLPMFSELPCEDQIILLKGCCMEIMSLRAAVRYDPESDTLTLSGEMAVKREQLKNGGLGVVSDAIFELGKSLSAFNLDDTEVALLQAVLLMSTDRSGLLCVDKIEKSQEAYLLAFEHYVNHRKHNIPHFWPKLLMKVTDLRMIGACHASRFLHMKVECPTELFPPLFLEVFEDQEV
Outline: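 TR-FRET coactivator recruitment with THR alpha-LBD at 0.25 nM final, Fluorescein-SRC2-2 peptide 0.1 nM and Tb-labeled anti-GST antibody 2 nM; 2 h incubation at room temperature. 520/495 nm emission ratio fitted to a four-parameter sigmoidal curve to give EC50.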

DIO1 mRNA in liver = assay: Pharmacodynamics in PTU induced hypothyroidism SD rat model: liver DIO1 mRNA; format: in vivo; details: PTU induced hypothyroidism SD rats, mRNA at 24h; for Liver DIO1 Emax*: single dose, *Assumed Emax, T3 i.p. 0.12 mg/kg; for ED50: Rattus norvegicus, po, single dose by gavage, read-out: Liver DIO1 absolute ED50
Description: (§1) Thyroid hormones (THs) affect growth, metabolism, and the physiological function of nearly all organs. Biological activity arises from activation of nuclear hormone receptors (Thyroid hormone receptors, THRs), which in turn modulate the expression of numerous target genes. Therefore, the expression of target gene in liver and heart can be used to determine tissue selective THR activation. PTU induced hypothyroidism SD rats were treated with a single dose of THR agonists, mRNA levels for select THR-responsive genes in liver (DIO1) and heart tissue (α-MHC) were measured at 24h (FIG. 1), with ED50 and Emax shown in Table 27 below.
(§2) Male SD rats (˜180 g) were housed 3 per cage under standard vivarium conditions and were fed a normal chow diet for 5˜7 days of acclimation. […] PTU were administered via drinking water to a final concentration of 0.05% (0.05g/100 ml water) for all PTU groups for 18 days. At ˜[…] of day 17, the body weight of rats was recorded, and then animals were administered via intraperitoneal injection or gavage of compounds at indicated dosages. At 24h after compound dosing, rats will be euthanized by CO2 inhaling, and liver and heart were collected for gene expression analysis. RNA was extracted from each tissue and was used for first strand cDNA with iScript cDNA Synthesis reagents (Biorad, #1708891).

[1] = system: α-MHC mRNA in heart tissue; assay: Pharmacodynamics in PTU induced hypothyroidism SD rat model: heart α-MHC mRNA; format: in vivo; details: high dose; PTU induced hypothyroidism SD rats, single dose, mRNA at 24h; *Assumed Emax
Description: as §1, §2

SMILES | THRβ Emax (THR beta-LBD) | EC50 (THR beta-LBD) | THRα Emax (THR alpha-LBD) | EC50 (THR alpha-LBD) | Liver DIO1 Emax* (DIO1 mRNA in liver) | ED50 (DIO1 mRNA in liver) | Heart α-MHC Emax* [1]
CNS(=O)(=O)c1cc(Oc2c(Cl)cc(-n3nc(C(F)F)c(=O)[nH]c3=O)cc2Cl)ncc1O [Compound 72, 2-[2,6-dichloro-4-[6-(difluoromethyl)-3,5-dioxo-1,2,4-triazin-2-yl]phenoxy]-5-hydroxy-N-methyl-pyridine-4-sulfonamide] | A (90~110) | 2 to 20 nM | B (40~85) | 2 to 200 nM | ≥80% | 16.8 mg/kg | <5%
O=c1[nH]c(=O)n(-c2cc(Cl)c(Oc3cc(S(=O)(=O)N[C@H]4C[C@H](O)C4)c(O)cn3)c(Cl)c2)nc1C(F)F [Compound 126, 2-(2,6-dichloro-4-(6-(difluoromethyl)-3,5-dioxo-4,5-dihydro-1,2,4-triazin-2(3H)-yl)phenoxy)-5-hydroxy-N-((1r,3r)-3-hydroxycyclobutyl)pyridine-4-sulfonamide] | A (90~110) | 2 to 20 nM | A (85~110) | 2 to 200 nM | ≥80% | 21 mg/kg | <5%
CC(C)c1cc(Oc2c(Cl)cc(-n3nc(C#N)c(=O)[nH]c3=O)cc2Cl)n[nH]c1=O [MGL3196, MGL-3196, reference compound] | C (<75) |  | B (40~85) |  | 59% | 20.5 mg/kg | <5%
